The values that follow come from ChEMBL document CHEMBL4354843, “Structure-Based Design of a Potent and Selective Covalent Inhibitor for SRC Kinase That Targets a P-Loop Cysteine” (J Med Chem, 2020).

Experiment [1] has as its target Fibroblast growth factor receptor 1 (Homo sapiens, UniProt P11362). Description: Inhibition of recombinant human His-tagged FGFR1 (308 to 731 residues) expressed in baculovirus expression system using tyrosine-4 peptide as substrate incubated for 1 hr by Z'-LYTE assay.
Experiment [2] addresses Proto-oncogene tyrosine-protein kinase Src (Homo sapiens, UniProt P12931). Description: Inhibition of recombinant human His-tagged full length SRC expressed in baculovirus expression system using tyrosine-2 peptide as substrate incubated for 1 hr by Z'-LYTE assay.
Experiment [3] concerns the target T1, Mitogen-activated protein kinase kinase kinase 7 (Homo sapiens, UniProt O43318).
T1 sequence (O43318 whole entry): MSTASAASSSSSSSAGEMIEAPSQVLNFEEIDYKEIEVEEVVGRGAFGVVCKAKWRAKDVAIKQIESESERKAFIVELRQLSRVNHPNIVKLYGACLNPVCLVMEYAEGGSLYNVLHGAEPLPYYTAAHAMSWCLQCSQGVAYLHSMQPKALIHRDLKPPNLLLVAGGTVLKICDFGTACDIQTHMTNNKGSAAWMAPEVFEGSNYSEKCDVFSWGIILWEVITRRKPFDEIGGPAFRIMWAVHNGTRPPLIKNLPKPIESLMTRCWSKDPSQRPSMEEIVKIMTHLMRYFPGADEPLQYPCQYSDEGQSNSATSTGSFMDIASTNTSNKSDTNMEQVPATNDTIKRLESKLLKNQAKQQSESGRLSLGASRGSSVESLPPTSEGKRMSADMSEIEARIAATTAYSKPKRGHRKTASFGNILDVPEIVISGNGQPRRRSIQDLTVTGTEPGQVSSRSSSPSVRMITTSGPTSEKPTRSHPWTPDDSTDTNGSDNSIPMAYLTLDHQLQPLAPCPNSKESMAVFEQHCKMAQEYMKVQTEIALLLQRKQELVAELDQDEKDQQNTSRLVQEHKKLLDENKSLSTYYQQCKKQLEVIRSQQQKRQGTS
The experiment in a line: Inhibition of tracer 222 binding to recombinant human His-tagged TAK1 (437 to 504 residues) expressed in baculovirus expression system […] incubated for 60 mins by Lanthascreen assay.

Molecules are shown by their SMILES.

Sequence of Proto-oncogene tyrosine-protein kinase Src (P12931 2-536 limits assumed): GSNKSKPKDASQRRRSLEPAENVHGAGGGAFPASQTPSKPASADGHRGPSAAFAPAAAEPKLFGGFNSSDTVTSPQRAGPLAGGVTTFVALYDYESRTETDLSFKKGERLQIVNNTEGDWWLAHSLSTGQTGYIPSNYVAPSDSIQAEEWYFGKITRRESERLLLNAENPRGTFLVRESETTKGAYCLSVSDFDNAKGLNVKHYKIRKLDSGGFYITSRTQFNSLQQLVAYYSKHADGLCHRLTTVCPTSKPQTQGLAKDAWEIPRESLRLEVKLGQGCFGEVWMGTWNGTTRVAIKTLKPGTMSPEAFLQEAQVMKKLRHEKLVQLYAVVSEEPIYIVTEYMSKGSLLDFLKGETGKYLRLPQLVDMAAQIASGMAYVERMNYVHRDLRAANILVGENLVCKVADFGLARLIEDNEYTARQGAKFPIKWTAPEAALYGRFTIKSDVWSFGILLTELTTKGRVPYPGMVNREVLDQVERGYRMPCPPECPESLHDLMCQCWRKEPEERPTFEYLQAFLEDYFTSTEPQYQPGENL
Sequence of Fibroblast growth factor receptor 1 (P11362 whole entry, the tested form may be a part): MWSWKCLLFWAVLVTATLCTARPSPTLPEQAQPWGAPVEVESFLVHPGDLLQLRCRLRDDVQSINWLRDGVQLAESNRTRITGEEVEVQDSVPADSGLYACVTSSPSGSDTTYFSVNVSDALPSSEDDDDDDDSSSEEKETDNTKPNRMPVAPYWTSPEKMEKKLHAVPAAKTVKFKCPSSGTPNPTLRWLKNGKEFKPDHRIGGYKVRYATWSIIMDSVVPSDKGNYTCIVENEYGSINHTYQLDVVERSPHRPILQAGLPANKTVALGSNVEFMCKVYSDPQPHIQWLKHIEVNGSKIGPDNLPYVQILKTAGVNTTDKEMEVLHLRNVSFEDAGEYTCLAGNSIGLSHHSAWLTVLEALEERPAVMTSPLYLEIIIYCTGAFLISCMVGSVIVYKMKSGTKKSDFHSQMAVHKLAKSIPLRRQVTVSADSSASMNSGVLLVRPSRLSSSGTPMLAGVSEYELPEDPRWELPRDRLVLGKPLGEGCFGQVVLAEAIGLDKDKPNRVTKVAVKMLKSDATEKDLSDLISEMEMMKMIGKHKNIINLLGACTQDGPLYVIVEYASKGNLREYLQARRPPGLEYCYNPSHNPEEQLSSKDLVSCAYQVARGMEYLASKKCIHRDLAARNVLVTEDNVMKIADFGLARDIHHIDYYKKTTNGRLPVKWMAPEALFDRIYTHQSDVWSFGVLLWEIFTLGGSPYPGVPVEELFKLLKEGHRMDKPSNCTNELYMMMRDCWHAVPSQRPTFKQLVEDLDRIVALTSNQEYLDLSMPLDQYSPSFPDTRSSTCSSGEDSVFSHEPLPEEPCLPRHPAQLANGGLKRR

As for `C=CC(=O)Nc1ccccc1Nc1nc(Nc2ccc(N3CCN(C)CC3)cc2)ncc1C(=O)Nc1ccccc1CC`, the IC50 in experiment [1] was more than 10000 nM. For `C=CC(=O)Nc1ccccc1Nc1nc(Nc2ccc(N3CCN(C)CC3)cc2)ncc1OCc1c(C)cccc1Cl`, the IC50 in experiment [1] came out at 373 nM; in experiment [2] it was 3 nM.

As for `C=CC(=O)Nc1ccccc1Nc1nc(Nc2ccc(N3CCN(C)CC3)cc2)ncc1C(=O)Nc1c(Cl)c(OC)cc(OC)c1Cl`, the IC50 in experiment [1] amounted to 391 nM. Take `C=CC(=O)Nc1ccccc1Nc1nc(Nc2ccc(N3CCN(C)CC3)cc2)ncc1-c1ccc(OC)nc1`: the IC50 in experiment [1] was 20 nM; in experiment [2], 6 nM; in experiment [3], 1890 nM. With `C=CC(=O)Nc1ccccc1Nc1nc(Nc2ccc(N3CCN(C)CC3)cc2)ncc1OCc1ccc(C)cc1`, the IC50 in experiment [1] was 119 nM; in experiment [2], 5 nM. With `C=CC(=O)Nc1ccccc1Nc1nc(Nc2ccc(N3CCN(C)CC3)cc2)ncc1-c1cccs1`, the IC50 in experiment [1] stood at 17 nM; in experiment [2], 3 nM; in experiment [3] it was 543 nM. On to `C=CC(=O)Nc1ccccc1Nc1nc(Nc2ccc(N3CCC(N4CCN(C)CC4)CC3)cc2)ncc1C(=O)Nc1c(C)cccc1Cl`, for which the IC50 in experiment [2] is more than 10000 nM. In the case of `C=CC(=O)Nc1ccccc1Nc1nc(Nc2ccc(N3CCN(C)CC3)cc2)ncc1-c1ccc(Oc2ccccc2)cc1`, the IC50 in experiment [1] stood at 89 nM; in experiment [2], 5 nM; in experiment [3], 5460 nM. Regarding `C=CC(=O)Nc1ccccc1Nc1nc(Nc2ccc(N3CCN(C)CC3)cc2)ncc1C(=O)Nc1cc(OC)c(OC)cc1C`, in experiment [1], the IC50 worked out at 6710 nM.

As for `C=CC(=O)Nc1ccccc1Nc1nc(Nc2ccc(N3CCN(C)CC3)cc2)ncc1OCc1ccc(Oc2ccccc2)cc1`, the IC50 stood at 1050 nM in experiment [1] and 6 nM in experiment [2].

As for `C=CC(=O)Nc1ccccc1Nc1nc(Nc2ccc(N3CCN(C)CC3)cc2)ncc1-c1ccc(C(C)=O)cc1`, the values for the IC50 in experiment [1], in experiment [2] and in experiment [3] were 72 nM, 6 nM and 1490 nM, respectively. Consider `C=CC(=O)Nc1ccccc1Nc1nc(Nc2ccc(N3CCN(C)CC3)cc2)ncc1C(=O)Nc1ccc(Oc2ccccc2)cc1`, for which the results for the IC50 in experiment [1] and in experiment [2] were more than 10000 nM and more than 3330 nM, respectively.

On to `C=CC(=O)Nc1ccccc1Nc1nc(Nc2ccc(N3CCN(C)CC3)cc2)ncc1Cl`, for which the results for the IC50 in experiment [1] and in experiment [2] were 54 nM and 4 nM, respectively. Consider `C=CC(=O)Nc1ccccc1Nc1nc(Nc2ccc(N3CCN(C)CC3)cc2)ncc1C(=O)Nc1c(C)cc(Cl)cc1Cl`, for which the IC50 in experiment [1] was more than 10000 nM. Take `C=CC(=O)Nc1ccccc1Nc1nc(Nc2ccc(N3CCN(C)CC3)cc2)ncc1-c1ccoc1`: the IC50 in experiment [1] was found to be 12 nM; in experiment [2], 2 nM; in experiment [3], 224 nM. Regarding `C=CC(=O)Nc1ccccc1Nc1nc(Nc2ccc(N3CCN(C)CC3)cc2)ncc1C(=O)Nc1c(C)cc(C#N)cc1Cl`, the IC50 in experiment [1] is more than 10000 nM.

Turning to `C=CC(=O)Nc1ccccc1Nc1nc(Nc2ccc(N3CCN(C)CC3)cc2)ncc1C(=O)Nc1c(C)cc(C)cc1Cl`, the IC50 in experiment [1] was more than 3330 nM. Same read-out and setting: with `C=CC(=O)Nc1ccccc1Nc1nc(Nc2ccc(N3CCN(C)CC3)cc2)ncc1C(=O)Nc1cc(C)cc(Cl)c1` the figure was more than 10000 nM.
